What all share (type): in vivo
Experiment [1] relates to Rhipicephalus microplus larvae (strain Parkhurst, resistant against synthetic pyrethroids). Description: Rhipicephalus (Boophilus) microplus in-vitro contact test, larval cattle tick. The note with it: 5 μg/cm^2 (=500 g/ha), after 48 hours, read-out: efficacy (larvae dead or moribund). The essentials:
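Larvae (20–50 per tube) were exposed for 48 h at 27 °C and 85% relative humidity to dried acetone residues lining glass tubes, where 900 ppm corresponds to 5 μg/cm^2. Loss of negative geotaxis defined dead or moribund larvae, expressed as percent efficacy.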

Experiment [2] concerns adult engorged female ticks (Rhipicephalus microplus). Description: Rhipicephalus (Boophilus) microplus injection test. As to conditions: 168 h, 4 μg/animal, egg deposition after 7 days, read-out: efficacy (infertile eggs). The essentials: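 Five adult engorged female ticks each injected into the abdomen with 1 μL of compound in DMSO, then kept in a climate chamber. Fertile egg deposition assessed after 7 days, with unclear eggs held until hatching around 42 days; efficacy 100% means all eggs infertile, 0% all fertile.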

The subject of experiment [3] is adult unfed cat fleas (Ctenocephalides felis). Nature of the experiment: Ctenocephalides felis oral test. The note with it: 48 h. The essentials: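 About 20 adult unfed fleas fed through parafilm on cattle blood containing compound (DMSO stock diluted in blood), blood held at 37 °C and fleas at room temperature. Mortality (%) scored after 2 days.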
Experiment [4] deals with adult brown dog ticks (Rhipicephalus sanguineus). Nature of the experiment: Rhipicephalus sanguineus in-vitro contact test with adult brown dog ticks. The note with it: 5 μg/cm^2 (=500 g/ha), after 48 hours, read-out: efficacy (ticks dead or moribund). The procedure:
Rhipicephalus sanguineus—In-Vitro Contact Tests with Adult Brown Dog Ticks
(§1) 9 mg compound is solved in 1 mL acetone and diluted with acetone to the desired concentration. 250 μL of the test solution is filled in 25 mL glass test tubes and homogeneously distributed on the inner walls by rotation and tilting on a shaking device (2 h at 30 rpm). With a compound concentration of 900 ppm, an inner surface of 44.7 cm^2 and a homogeneous distribution, a dose of 5 μg/cm^2 is achieved.
After the solvent has evaporated, each test tube is filled with 5-10 adult brown dog ticks (Rhipicephalus sanguineus), closed with a perforated lid and incubated in a lying position at room temperature and relative humidity. After 48 hours efficacy is determined. The ticks are patted on the ground of the tubes and are incubated on a heating plate at 45-50° C. for at most 5 minutes. Immotile or uncoordinated moving ticks, which are not able to escape the heat by climbing upwards, are marked as dead or moribund.
An efficacy of 100% means all ticks are dead or moribund; 0% means no ticks are dead or moribund.

In experiment [5] the test system is larvae of the banded cucumber beetle (Diabrotica balteata). Nature of the experiment: Diabrotica balteata spray test. As to conditions: 168 h, 100 g/ha (=32 μg/well), wheat seeds, after 7 days, read-out: efficacy (seedling growth). The essentials:
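Efficacy in % was read 7 days after infesting with 10-20 larvae per unit. Before infestation, 1-day-germinated wheat seedlings (5 per well) were sprayed with the active ingredient, formulated in acetone and dimethylformamide plus emulsifier and diluted with water containing emulsifier.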

Experiment [6] concerns green peach aphid (Myzus persicae). Description: Myzus persicae oral test. The note with it: 120 h. Put shortly: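 Compound was dissolved in acetone, diluted with water and mixed into IPL41 insect medium with sugar under a parafilm seal. A mixed aphid population fed through the parafilm, and mortality (%) was scored after 5 days.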
Experiment [7] relates to fall armyworm larvae (Spodoptera frugiperda). Nature of the experiment: Spodoptera frugiperda spray test (maize leaf sections). As to conditions: 168 h. Put shortly: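 Percent kill of Spodoptera frugiperda caterpillars read at day 7. Larvae placed on dried Zea mays leaf pieces previously sprayed with test preparation, made from acetone plus DMF and diluted with emulsifier-containing water (1000 ppm).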

In experiment [8] the test system is adult cat fleas (Ctenocephalides felis). Nature of the experiment: Ctenocephalides felis in-vitro contact test, adult cat flea. The note with it: 5 μg/cm^2 (=500 g/ha), after 48 hours. The procedure: Ctenocephalides felis—In-Vitro Contact Tests Adult Cat Flea
as §1
After the solvent has evaporated, each test tube is filled with 5-10 adult cat fleas (Ctenocephalides felis), closed with a perforated lid and incubated in a lying position at room temperature and relative humidity. After 48 hours efficacy is determined. The fleas are patted on the ground of the tubes and are incubated on a heating plate at 45-50° C. for at most 5 minutes. Immotile or uncoordinated moving fleas, which are not able to escape the heat by climbing upwards, are marked as dead or moribund.
An efficacy of 100% means all fleas are dead or moribund; 0% means no fleas are dead or moribund.

The subject of experiment [9] is green peach aphid (Myzus persicae). Description: Myzus persicae spray test. As to conditions: foliar, 120 h, Chinese cabbage leaf disks, after 5 days. Put shortly:
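Percent mortality read 5 days after spraying, where 100% is total kill and 0% none. The spray contained compound in acetone plus dimethylformamide, diluted with 1000 ppm emulsifier water. It was applied to Brassica pekinensis leaf disks carrying mixed-instar green peach aphids.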

The test system of experiment [10] is larvae of the southern green stink bug (Nezara viridula). Description: Nezara viridula spray test. As to conditions: in Hordeum vulgare, 96 h. Put shortly: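 Mortality (%) of stink bug larvae on treated barley (Hordeum vulgare) was scored 4 days after infestation. Test solutions came from an acetone/DMF concentrate diluted with water containing 1000 ppm emulsifier and were sprayed onto plants before larvae were added.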

Structures are written as SMILES.

The source of these data is patent US20230065953A1, “NOVEL HETEROARYL-TRIAZOLE COMPOUNDS AS PESTICIDES” (Bayer Aktiengesellschaft, priority 2019, published 2023).

With `Cc1nc([C@H](C)NC(=O)c2cc(C(F)(F)F)cc(C(F)(F)F)c2)n(-c2ncc(C(=O)N(C)C3CC3)s2)n1` [I-7], in experiment [1], the pest or weed control at 5 µg/cm2 stood at 100%. Moreover, the pest or weed control at 0.004 mg in experiment [2] turned out to be 100%. The mortality – broadly, the percentage killed – at 100 ppm in experiment [3] stood at 100%. For the same compound, in experiment [4], the pest or weed control at 5 µg/cm2, 500 g/ha amounted to 100%. In experiment [5], the pest or weed control at 32 µg/disc, 100 g/ha is 100%. The same compound displayed a mortality at 4 ppm in [6] of 100%. In experiment [7], this compound registered a mortality at 100 g/ha of 100%.
For `Cc1nc([C@H](C)NC(=O)c2cc(C(F)(F)F)cc(C(F)(F)F)c2)n(-c2ncc(C(=O)N(C)CC(C)C)s2)n1` [I-8], the pest or weed control at 5 µg/cm2 in [1] was 100%. The pest or weed control at 0.004 mg in [2] turned out to be 100%. For the same compound, the mortality at 100 ppm in experiment [3] came to 100%. Moreover, in experiment [4], the pest or weed control at 5 µg/cm2, 500 g/ha was determined as 100%. In addition, the pest or weed control at 32 µg/disc, 100 g/ha in experiment [5] was 100%. The mortality at 4 ppm in [6] amounted to 100%. Also, the mortality at 100 g/ha in experiment [7] was determined as 100%.
Consider `Cc1nc([C@H](C)NC(=O)c2cc(C(F)(F)F)cc(C(F)(F)F)c2)n(-c2ncc(C(=O)N(C)CC(F)(F)F)s2)n1` [I-11], for which the pest or weed control at 5 µg/cm2 in experiment [1] is 100%. For the same compound, the pest or weed control at 0.004 mg in [2] was determined as 100%. Besides, the mortality at 100 ppm in [3] turned out to be 100%. For the same compound, in [4], the pest or weed control at 5 µg/cm2, 500 g/ha turned out to be 100%. In experiment [5], the pest or weed control at 32 µg/disc, 100 g/ha came to 100%. For the same compound, in [6], the mortality at 4 ppm was determined as 100%. In experiment [7], this compound returned a mortality at 100 g/ha of 100%.
For `Cc1nc([C@H](C)NC(=O)c2cc(Br)cc(C#N)c2)n(-c2ncc(C#N)s2)n1` [I-15], the pest or weed control at 5 µg/cm2 in experiment [1] was found to be 90%. In [2], the pest or weed control at 0.004 mg was found to be 100%. For the same compound, the “efficacy (fleas dead or moribund)” value in experiment [8] worked out at 100%. For the same compound, the mortality at 100 ppm in experiment [3] was 100%. In addition, in experiment [4], the pest or weed control at 5 µg/cm2, 500 g/ha was found to be 100%. In experiment [5], the pest or weed control at 32 µg/disc, 100 g/ha was determined as 100%. Further, the mortality at 100 g/ha in experiment [7] was determined as 83%.
Consider `Cc1nc([C@H](C)NC(=O)c2cc(Br)cc(OC(F)(F)F)c2)n(-c2ncc(C#N)s2)n1` [I-17], for which the pest or weed control at 5 µg/cm2 in experiment [1] is 100%. In [2], the pest or weed control at 0.004 mg amounted to 100%. In addition, the “efficacy (fleas dead or moribund)” value in experiment [8] is listed as 80%. The compound further showed a mortality at 100 ppm in experiment [3] of 100%. Besides, the pest or weed control at 5 µg/cm2, 500 g/ha in experiment [4] came to 100%. Further, the pest or weed control at 32 µg/disc, 100 g/ha in experiment [5] was found to be 100%. The compound also gave a mortality at 4 ppm in experiment [6] of 100%. Also, the mortality at 100 g/ha in experiment [7] is 100%.
`Cc1nc([C@H](C)NC(=O)c2cc(Cl)cc(C(F)(F)F)c2)n(-c2ncc(C(=O)N(C)CC#N)s2)n1` [I-23]: in experiment [1], the pest or weed control at 5 µg/cm2 is 100%. The pest or weed control at 0.004 mg in experiment [2] worked out at 100%. For the same compound, the “efficacy (fleas dead or moribund)” value in experiment [8] was 100%. In [3], the mortality at 100 ppm worked out at 90%. In addition, the pest or weed control at 5 µg/cm2, 500 g/ha in experiment [4] turned out to be 100%. Also, the pest or weed control at 32 µg/disc, 100 g/ha in experiment [5] was 100%. The same compound came in with a mortality at 4 ppm in experiment [6] of 100%. Moreover, the mortality at 100 g/ha stood at 90% in experiment [9] and 83% in experiment [7].
Take `Cc1nc([C@H](C)NC(=O)c2cc(OC(F)(F)F)cc(C3CC3)c2)n(-c2ncc(C(=O)N(C)CC#N)s2)n1` [I-24, N-(cyanomethyl)-2-(5-{(1S)-1-[3-cyclopropyl-5-(trifluoromethoxy)benzamido]ethyl}-3-methyl-1H-1,2,4-triazol-1-yl)-N-methyl-1,3-thiazole-5-carboxamide]: the pest or weed control at 5 µg/cm2 in [1] turned out to be 100%. Further, the pest or weed control at 0.004 mg in experiment [2] was 100%. In addition, in experiment [8], the “efficacy (fleas dead or moribund)” value is 100%. The mortality at 100 ppm in experiment [3] was found to be 100%. The pest or weed control at 5 µg/cm2, 500 g/ha in experiment [4] was determined as 80%. In addition, the pest or weed control at 32 µg/disc, 100 g/ha in experiment [5] stood at 100%. For the same compound, the mortality at 4 ppm in experiment [6] was found to be 100%. Further, the mortality at 100 g/ha in experiment [9] and in experiment [7] was 100% throughout.
Take `CC(NC(=O)c1cc(OC(F)(F)F)cc(C2CC2)c1)c1ncnn1-c1ncc(C#N)s1` (centres unmarked) [I-30]: the pest or weed control at 5 µg/cm2 in [1] worked out at 100%. Moreover, in experiment [2], the pest or weed control at 0.004 mg is 100%. This compound came in with a mortality at 100 ppm in [3] of 100%. The pest or weed control at 5 µg/cm2, 500 g/ha in [4] worked out at 100%. Also, the pest or weed control at 32 µg/disc, 100 g/ha in [5] came to 100%. For the same compound, the mortality at 4 ppm in experiment [6] was 100%. In experiment [7], the mortality at 100 g/ha is 100%.
Turning to `C[C@H](NC(=O)c1cc(I)cc(OC(F)F)c1)c1ncnn1-c1ncc(C#N)s1` [I-38], in experiment [1], the pest or weed control at 5 µg/cm2 was 100%. Further, the “efficacy (fleas dead or moribund)” value in experiment [8] is reported as 90%. In addition, the pest or weed control at 5 µg/cm2, 500 g/ha in [4] was 80%. The pest or weed control at 32 µg/disc, 100 g/ha in [5] was 100%.
`CNC(=O)c1cnc(-n2nc(C)nc2[C@H](C)NC(=O)c2cc(Cl)cc(C(F)(F)F)c2)s1` [I-69]: the pest or weed control at 5 µg/cm2 in experiment [1] came to 80%. Moreover, the pest or weed control at 0.004 mg in experiment [2] came out at 100%. In experiment [8], the “efficacy (fleas dead or moribund)” value stood at 90%. Also, the pest or weed control at 5 µg/cm2, 500 g/ha in experiment [4] stood at 80%. Moreover, the pest or weed control at 32 µg/disc, 100 g/ha in [5] is 100%. In experiment [6], this compound showed a mortality at 4 ppm of 100%. Besides, the mortality at 100 g/ha turned out to be 90% in experiment [9] and 100% in [7].
For `Cc1nc([C@H](C)NC(=O)c2cc(Br)cc(Br)c2)n(-c2ncc(C(=O)N(C)CC#N)s2)n1` [I-72], in [1], the pest or weed control at 5 µg/cm2 worked out at 100%. In addition, in [8], the “efficacy (fleas dead or moribund)” value stood at 80%. For the same compound, the pest or weed control at 5 µg/cm2, 500 g/ha in [4] stood at 100%. In experiment [5], the pest or weed control at 32 µg/disc, 100 g/ha came to 100%. Moreover, the mortality at 4 ppm in [6] worked out at 100%. This compound gave a mortality at 100 g/ha in [7] of 100%.
With `Cc1nc([C@H](C)NC(=O)c2cc(Br)cc(OC(F)(F)F)c2)n(-c2ncc(C(=O)N(C)CC#N)s2)n1` [I-125], the pest or weed control at 5 µg/cm2 in experiment [1] amounted to 100%. Also, in experiment [8], the “efficacy (fleas dead or moribund)” value is 100%. For the same compound, in [4], the pest or weed control at 5 µg/cm2, 500 g/ha was found to be 80%. Moreover, the pest or weed control at 32 µg/disc, 100 g/ha in experiment [5] worked out at 100%. For the same compound, the mortality at 100 g/ha in [9] turned out to be 90%; in experiment [7], 100%. This compound also had a mortality at 500 g/ha in experiment [10] of 100%.
